The values that follow come from patent publication US20040044226A1, “Estrogen receptor modulators” (priority 2003, published 2004).

The test system of the test is MCF-7 cells. As to the kind of experiment: MCF-7 Estrogen Dependent Proliferation Assay. The note with it: Homo sapiens, MCF7, estradiol added to Estrogen Depleted Media (EDM), read-out: EC50 of stimulation of growth of MCF-7 cells. It is filed as cell-based. The source says: MCF-7 Estrogen Dependent Proliferation Assay MCF-7 cells (ATCC #HTUB-22) are human mammary gland adenocarcinoma cells that require estrogen for growth. The growth media (GM) for the MCF-7 cells is Minimum Essential Media (without phenol red) supplemented with fetal bovine serum(FBS) to 10%. The FBS serves as the sole source of estrogen and this GM supports the full growth of the cells and is used for the routine growth of the cell cultures. When MCF-7 cells are placed in a media in which 10% Charcoal-Dextran treated fetal bovine serum (CD-FBS) is substituted for FBS, the cells will cease to divide but will remain viable. […] The addition of estradiol to EDM stimulates the growth of the MCF-7 cells in a dose dependent manner with an EC50 of […]. Growing MCF-7 cells are washed several times with EDM and the cultures then maintained in EDM for a minimum of 6 days in order to deplete the cells of endogenous estrogen. On day 0 (at the start of the assay), these estrogen depleted cells are plated into 96-well cell culture plates at a density of 1000 cells/well in EDM in a volume of 180 ul/well. […] At this point, the culture supernatants are aspirated, the cells washed 2× with PBS, the wash solution aspirated and the protein content of each well determined. Each drug dilution is evaluated on a minimum of 5 wells and the range of dilution of the test compounds in the assay is 0.001 nM to 1000 nM. […]

For orientation: EC50 means the concentration that produces a half-maximal response. With `C[C@]12CC[C@@H]3c4ccc(O)cc4CC[C@H]3[C@@H]1CC[C@@H]2O` [estradiol], the EC50 worked out at 2 pM.
